Key:
E. coli = experiment: Antibacterial power measurement of first compound (bacterial inhibition rate, broth, absorbance 600 nm); format: cell-based; details: Escherichia coli, 0.01 g first compound in 25 ml broth, 3,000 CFU/ml, 35° C. for 16 hours
Proteus mirabilis = experiment: as above; format: cell-based; details: 0.01 g first compound in 25 ml broth, 3,000 CFU/ml, 35° C. for 16 hours

Structure (SMILES) | inhibition of growth at 400 µg/mL (E. coli) [%] | inhibition of growth at 400 µg/mL (Proteus mirabilis) [%] | inhibition of growth at 400 µg/mL (E. coli; 16 h) [%] | inhibition of growth at 400 µg/mL (Proteus mirabilis; 16 h) [%]
CCCCCCCCCC[N+](C)(CCO)CCO [Antibacterial Deodorant Monomer A] | 98.9 | 99.9 | – | –
CCCCCCCC[N+](C)(CCO)CCO [Antibacterial Deodorant Monomer B] | 89.3 | 91.2 | – | –
CCCCCCCCCC[N+](C)(C)CCO [Antibacterial Deodorant Monomer D] | 94.4 | 91.7 | – | –
CCCCCCCCCCCC[N+](C)(C)CCO [Antibacterial Deodorant Monomer E] | 96.1 | 96.9 | – | –
CCCCCCCCCC[N+](C)(C)CCO [Antibacterial Deodorant Monomer F] | – | – | 96.4 | 83.1
CCCC[N+](C)(CCO)CCO [Antibacterial Deodorant Monomer G] | 15.2 | 18.3 | – | –
CCCCCCCCCCCC[N+](C)(C)CCCCCCCCCCCC [Didodecyldimethylammonium chloride, reference compound] | 90.1 | 88.5 | – | –
N=C(N)N [Guanidine, reference compound] | 96.5 | 97.2 | – | –
CCCCCCCCCCCCCCCC[N+](C)(C)C [Hexadecyltrimethylammonium chloride, reference compound] | – | – | 92.1 | 93.5
CCCCCCCCCC[N+](C)(C)CCCCCCCCO [reference compound] | 82.1 | 85.1 | – | –
CCCCCCCCCCCC[N+](CCO)(CCCCCCCCCC)CCCCCCCCCCCC [reference compound] | 79.8 | 81.3 | – | –

— patent US20230381077A1, “Antibacterial And Deodorizing Composition, And Preparation Method Therefor” (LG Chem, Ltd., priority 2021, published 2023)
